# Experimental data from patent US20250099423A1, “PIPERAZINE-BASED AGONISTS OF LFA-1 AND VLA-4” (Texas Heart Institute, priority 2021, published 2025).
# Assays:
# α4β1/VCAM-1 = biological target: T1, α4β1/VCAM-1 (Homo sapiens, UniProt P05556+P13612); test: Static cell adhesion assay, Jurkat cells on VCAM-1 (α4β1/VCAM-1); assay type: cell-based; conditions: ratio compound activity/control THI0019 (average 33 μM) run on the same plate
# T1 construct: The Jurkat (VCAM-1 assays) and HSB (ICAM-1 assays) cell lines were obtained from American Type Culture Collection; endogenous in cells; host or cells: Jurkat cells (ATCC)
# Procedure: (§1) For in vitro cell adhesion assays, compounds were dissolved in DMSO to make a series of stock solutions such that a 1:100 dilution in assay buffer would yield the desired final working concentrations in 1% DMSO (vehicle). Human VCAM-1 and ICAM-1 were purchased from R&D Systems (Minneapolis, MN). The Jurkat (VCAM-1 assays) and HSB (ICAM-1 assays) cell lines were obtained from American Type Culture Collection (Manassas, VA) and were maintained in recommended culture media.
# (§2) Assays were performed as previously described in 1. Vanderslice, P., Woodside, D. G., Caivano, A. R., Decker, E. R., Munsch, C. L., Sherwood, S. J., Lejeune, W. S., Miyamoto, Y. J., McIntyre, B. W., Tilton, R. G., and Dixon, R. A. (2010) Potent in vivo suppression of inflammation by selectively targeting the high affinity conformation of integrin alpha4beta1. Biochem Biophys Res Commun 400, 619-624; and 2. Vanderslice, P., Biediger, R. J., Woodside, D. G., Brown, W. S., Khounlo, S., Warier, N. D., Gundlach, C. W. t., Caivano, A. R., Bornmann, W. G., Maxwell, D. S., McIntyre, B. W., Willerson, J. T., and Dixon, R. A. (2013) Small molecule agonist of very late antigen-4 (VLA-4) integrin induces progenitor cell adhesion. J Biol Chem 288, 19414-19428. VCAM-1 or ICAM-1 ligand in 50 μL of 50 mM Tris-HCl (pH 7.4), 150 mM NaCl, (TBS) was added to wells of a 96-well plate and allowed to coat overnight at 4° C. To maximize the window to evaluate agonist activity, a sub-optimal coating concentration of ligand was used, typically between 0.5 and 5 μg/mL in 50 μL TBS for VCAM-1 and ICAM-1 respectively. This ligand concentration corresponded approximately to that which would yield≤ 5% adhesion as determined by dose-response curves. Briefly, 2×10^6 cells were labeled for 30 minutes with calcein-AM (Molecular Probes), washed, resuspended in binding buffer, and added to triplicate wells of ligand-coated plates (2×10^5 cells/well) that had been blocked with 2% BSA. After a 30-minute incubation at 37° C., the plates were washed 3 times with binding buffer, the adherent cells were lysed, and fluorescence was measured on a Tecan Safire^2 plate reader. The binding buffer was PBS with 1 mM MgCl2, 50% FBS for α4β1/VCAM-1 assays and PBS with 2 mM MgCl2, 5 mM EGTA, 50% FBS for αLβ2/ICAM-1 assays. EC50 is defined as the concentration of compound required to achieve 50% of the maximal response.
# LFA-1 = biological target: T2, LFA-1 (Homo sapiens, UniProt P05107+P20701); test: Static cell adhesion assay, HSB cells on ICAM-1 (αLβ2/ICAM-1; LFA-1); assay type: cell-based; conditions: Dose 3 μM, compound and THI0349 at the same concentration; ratio >1 = more potent agonist
# T2 construct: The Jurkat (VCAM-1 assays) and HSB (ICAM-1 assays) cell lines were obtained from American Type Culture Collection; endogenous in cells; host or cells: HSB cells (ATCC)
# Procedure: as §1, §2
# THI0019 and THI0349 (average 11 μM) reported values here were obtained under the assay conditions reported herein and ran higher in the presence of serum than those values under different assay conditions. […] Relative to THI0019 (average 33 μM) as a control against CS1, the ratio of (compound activity/control) is as follows: Group I< or =1. Group II at least a ratio of >1 up to 2× that of THI0019 ran on the same plate; Group III is >2× of THI0019 but less than 5×; and Group IV>5× of THI0019 (with an upper limit of approximately 200 mM). In relation to LAD (Leukocyte Adhesion Deficiency), LFA-1 ratios are determined by dividing the relative fluorescence units (RFU) of each compound over that of the reference standard of THI0349, (RFU Compound/RFU of THI0349). Against LFA-1, the signal for THI0349 at 3 μM was compared to the claimed compounds at the same concentration.
# T1 sequence (P13612 34-1032): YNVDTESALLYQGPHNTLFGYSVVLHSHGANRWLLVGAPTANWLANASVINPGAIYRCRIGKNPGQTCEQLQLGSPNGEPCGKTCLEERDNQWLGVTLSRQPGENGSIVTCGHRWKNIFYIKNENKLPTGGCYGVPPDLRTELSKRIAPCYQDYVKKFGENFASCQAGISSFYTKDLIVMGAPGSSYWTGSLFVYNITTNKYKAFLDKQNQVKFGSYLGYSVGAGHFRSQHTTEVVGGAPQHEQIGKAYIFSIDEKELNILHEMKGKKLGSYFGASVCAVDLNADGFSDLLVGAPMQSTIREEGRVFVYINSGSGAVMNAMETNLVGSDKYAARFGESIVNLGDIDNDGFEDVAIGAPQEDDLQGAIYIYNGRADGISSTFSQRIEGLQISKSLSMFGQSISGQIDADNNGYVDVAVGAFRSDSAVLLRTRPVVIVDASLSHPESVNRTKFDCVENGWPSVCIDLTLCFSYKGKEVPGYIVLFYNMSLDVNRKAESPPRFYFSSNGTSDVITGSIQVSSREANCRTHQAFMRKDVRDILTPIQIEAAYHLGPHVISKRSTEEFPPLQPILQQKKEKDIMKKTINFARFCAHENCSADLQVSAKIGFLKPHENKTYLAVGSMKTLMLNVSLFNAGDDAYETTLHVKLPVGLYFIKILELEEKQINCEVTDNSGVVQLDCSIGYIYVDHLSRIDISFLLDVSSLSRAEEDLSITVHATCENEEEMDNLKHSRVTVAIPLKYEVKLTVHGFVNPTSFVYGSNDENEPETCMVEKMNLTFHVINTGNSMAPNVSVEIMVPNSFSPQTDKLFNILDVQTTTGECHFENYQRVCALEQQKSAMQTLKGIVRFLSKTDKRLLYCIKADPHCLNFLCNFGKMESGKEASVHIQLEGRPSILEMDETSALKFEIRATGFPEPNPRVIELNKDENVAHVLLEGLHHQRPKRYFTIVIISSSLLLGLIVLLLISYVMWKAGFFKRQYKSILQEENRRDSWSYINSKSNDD
# T1 sequence (P05556 21-798): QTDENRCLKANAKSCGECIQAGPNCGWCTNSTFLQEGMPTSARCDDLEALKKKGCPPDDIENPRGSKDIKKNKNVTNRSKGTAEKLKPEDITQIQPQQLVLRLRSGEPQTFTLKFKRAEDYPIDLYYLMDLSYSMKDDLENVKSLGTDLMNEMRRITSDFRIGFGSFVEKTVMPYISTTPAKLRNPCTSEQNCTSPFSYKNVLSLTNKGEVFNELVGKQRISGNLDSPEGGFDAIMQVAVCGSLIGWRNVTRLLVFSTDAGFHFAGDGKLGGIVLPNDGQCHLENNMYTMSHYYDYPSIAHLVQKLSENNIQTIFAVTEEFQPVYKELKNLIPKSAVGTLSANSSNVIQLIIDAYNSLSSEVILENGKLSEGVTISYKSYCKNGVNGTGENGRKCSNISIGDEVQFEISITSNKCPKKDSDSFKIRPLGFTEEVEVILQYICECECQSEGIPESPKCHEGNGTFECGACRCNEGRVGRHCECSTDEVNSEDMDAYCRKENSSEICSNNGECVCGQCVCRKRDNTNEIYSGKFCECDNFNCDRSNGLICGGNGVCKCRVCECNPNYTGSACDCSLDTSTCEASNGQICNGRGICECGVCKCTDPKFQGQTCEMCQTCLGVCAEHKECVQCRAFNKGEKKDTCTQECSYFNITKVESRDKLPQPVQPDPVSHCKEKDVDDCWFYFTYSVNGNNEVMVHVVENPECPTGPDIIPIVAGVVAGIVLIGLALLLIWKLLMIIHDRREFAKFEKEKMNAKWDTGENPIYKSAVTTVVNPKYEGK
# T2 sequence (P20701 26-1170): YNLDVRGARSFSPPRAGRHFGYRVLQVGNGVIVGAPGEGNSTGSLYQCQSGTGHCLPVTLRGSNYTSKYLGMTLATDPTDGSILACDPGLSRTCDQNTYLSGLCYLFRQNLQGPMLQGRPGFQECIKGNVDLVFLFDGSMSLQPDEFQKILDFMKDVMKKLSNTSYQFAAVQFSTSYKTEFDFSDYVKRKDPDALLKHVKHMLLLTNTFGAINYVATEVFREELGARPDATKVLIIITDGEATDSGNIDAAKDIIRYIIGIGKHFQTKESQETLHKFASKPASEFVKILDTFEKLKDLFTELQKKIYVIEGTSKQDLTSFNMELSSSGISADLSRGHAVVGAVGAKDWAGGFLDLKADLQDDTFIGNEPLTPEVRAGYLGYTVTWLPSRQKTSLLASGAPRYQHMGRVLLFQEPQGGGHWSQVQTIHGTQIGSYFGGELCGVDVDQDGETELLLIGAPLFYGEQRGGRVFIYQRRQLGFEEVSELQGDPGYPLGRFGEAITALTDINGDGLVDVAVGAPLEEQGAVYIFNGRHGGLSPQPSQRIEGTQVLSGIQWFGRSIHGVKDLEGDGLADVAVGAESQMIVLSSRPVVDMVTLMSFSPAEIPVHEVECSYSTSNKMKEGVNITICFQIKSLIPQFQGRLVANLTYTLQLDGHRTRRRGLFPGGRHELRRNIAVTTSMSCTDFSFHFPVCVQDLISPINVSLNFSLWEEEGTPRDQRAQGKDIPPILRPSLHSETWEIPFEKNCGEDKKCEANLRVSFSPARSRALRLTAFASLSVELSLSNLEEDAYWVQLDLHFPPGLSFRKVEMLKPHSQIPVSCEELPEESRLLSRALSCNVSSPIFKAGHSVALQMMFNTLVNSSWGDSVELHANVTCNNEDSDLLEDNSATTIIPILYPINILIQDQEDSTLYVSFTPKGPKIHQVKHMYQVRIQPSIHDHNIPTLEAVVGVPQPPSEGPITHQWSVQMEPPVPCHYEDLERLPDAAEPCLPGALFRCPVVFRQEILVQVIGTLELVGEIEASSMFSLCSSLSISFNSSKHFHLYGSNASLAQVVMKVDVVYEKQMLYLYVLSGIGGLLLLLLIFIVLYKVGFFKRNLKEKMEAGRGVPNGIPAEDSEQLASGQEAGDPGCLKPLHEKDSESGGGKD
# T2 sequence (P05107 23-769): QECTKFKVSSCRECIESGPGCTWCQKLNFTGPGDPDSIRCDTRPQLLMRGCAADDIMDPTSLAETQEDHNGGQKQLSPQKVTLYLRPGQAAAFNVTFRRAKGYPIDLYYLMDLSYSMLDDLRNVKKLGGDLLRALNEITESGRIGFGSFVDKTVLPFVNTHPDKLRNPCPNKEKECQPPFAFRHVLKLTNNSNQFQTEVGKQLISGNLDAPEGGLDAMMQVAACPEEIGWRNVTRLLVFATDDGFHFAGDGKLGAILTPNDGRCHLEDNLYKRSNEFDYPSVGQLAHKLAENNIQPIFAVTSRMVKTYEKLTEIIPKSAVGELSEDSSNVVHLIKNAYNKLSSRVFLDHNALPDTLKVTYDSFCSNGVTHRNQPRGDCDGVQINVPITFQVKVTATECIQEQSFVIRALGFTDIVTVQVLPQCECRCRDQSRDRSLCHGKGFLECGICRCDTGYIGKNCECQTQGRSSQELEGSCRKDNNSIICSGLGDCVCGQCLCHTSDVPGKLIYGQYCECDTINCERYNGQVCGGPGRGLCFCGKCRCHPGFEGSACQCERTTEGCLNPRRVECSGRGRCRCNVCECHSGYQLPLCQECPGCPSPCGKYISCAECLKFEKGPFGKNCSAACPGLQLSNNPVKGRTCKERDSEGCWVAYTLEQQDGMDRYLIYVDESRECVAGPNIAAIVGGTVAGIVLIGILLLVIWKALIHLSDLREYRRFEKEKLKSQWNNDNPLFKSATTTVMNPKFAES
SMILES,LAD Raw Fluorescence Units against LFA-1; Ratio of raw counts Compound/THI0349 (LFA-1),Average Ratio Compound to THI0019 (Activity against CS1) (α4β1/VCAM-1)
"COc1cccc(CN(Cc2ccc(N(C)C)cc2)C(=O)OCCN2CC(=O)N(CCOC(=O)N(Cc3ccc(N(C)C)cc3)Cc3cccc(OC)c3)CC2=O)c1 [(2,5-dioxopiperazine-1,4-diyl)bis(ethane-2,1-diyl) bis(4-(dimethylamino)benzyl (3-methoxybenzyl)carbamate)]",7.8 fold increased response,Group I (Group I< or =1)
"COc1ccc(CN(Cc2ccc(OC)cc2)C(=O)OCCN2CC(=O)N(CCOC(=O)N(Cc3ccc(OC)cc3)Cc3ccc(OC)cc3)CC2=O)cc1 [(2,5-dioxopiperazine-1,4-diyl)bis(ethane-2,1-diyl) bis(bis(4-methoxybenzyl)carbamate)]",7.8 fold increased response,Group I (Group I< or =1)
"O=C1CN(CCOC(=O)N(Cc2cccs2)Cc2cccs2)C(=O)CN1CCOC(=O)N(Cc1cccs1)Cc1cccs1 [(2,5-dioxopiperazine-1,4-diyl)bis(ethane-2,1-diyl) bis(bis(thiophen-2-ylmethyl)carbamate)]",2 fold increased response,Group II (Group II at least a ratio of >1 up to 2× that of THI0019 ran on the same plate)
"COc1cccc(CN(Cc2cccc(OC)c2)C(=O)OCCN2CC(=O)N(CCOC(=O)N(Cc3cccc(OC)c3)Cc3cccc(OC)c3)CC2=O)c1 [(2,5-dioxopiperazine-1,4-diyl)bis(ethane-2,1-diyl) bis(bis(3-methoxybenzyl)carbamate)]",3.4 fold increased response,Group I (Group I< or =1)
"COc1ccc(CN(CC(C)C)C(=O)CN2CC(=O)N(CC(=O)N(Cc3ccc(OC)cc3)CC(C)C)CC2=O)cc1 [2,2′-(2,5-dioxopiperazine-1,4-diyl)bis(N-isobutyl-N-(4-methoxybenzyl)acetamide)]",0.15 fold response,Group III (Group III is >2× of THI0019 but less than 5×)
"COc1ccc(CN(Cc2ccc(OC)cc2)C(=O)CN2CCN(C(=O)Cc3cccc(OC)c3)CC2=O)cc1 [N,N-bis(4-methoxybenzyl)-2-(4-(2-(3-methoxyphenyl)acetyl)-2-oxopiperazin-1-yl)acetamide]",0.5 fold response,Group III (Group III is >2× of THI0019 but less than 5×)
"COc1ccc(CN(CC(C)C)C(=O)CN2CCN(CC(=O)N(Cc3ccc(OC)cc3)CC(C)C)C(=O)C2)cc1 [2,2′-(2-oxopiperazine-1,4-diyl)bis(N-isobutyl-N-(4-methoxybenzyl)acetamide)]",0.19 fold response,Group III (Group III is >2× of THI0019 but less than 5×)
"O=C(CN1CCN(CC(=O)N(Cc2cccs2)Cc2cccs2)CC1)N(Cc1cccs1)Cc1cccs1 [2,2′-(piperazine-1,4-diyl)bis(N,N-bis(thiophen-2-ylmethyl)acetamide)]",0.4 fold response,Group II (Group II at least a ratio of >1 up to 2× that of THI0019 ran on the same plate)
"COc1ccc(CN(Cc2ccc(OC)cc2)C(=O)CN2CCN(C(=O)c3cccc(OC)c3)CC2=O)cc1 [2-(4-(3-methoxybenzoyl)-2-oxopiperazin-1-yl)-N,N-bis(4-methoxybenzyl)acetamide]",0.6 fold response,Group IV (Group IV>5× of THI0019 (with an upper limit of approximately 200 mM))

# Further lines, with some results ahead:
LAD Raw Fluorescence Units against LFA-1; Ratio of raw counts Compound/THI0349 (LFA-1),SMILES,Average Ratio Compound to THI0019 (Activity against CS1) (α4β1/VCAM-1)
3.3 fold increased response,COc1ccc(CN(Cc2ccc(OC)cc2)C(=O)CN2CCN(C(=O)OCc3ccccc3)CC2)cc1 [benzyl 4-(2-(bis(4-methoxybenzyl)amino)-2-oxoethyl)piperazine-1-carboxylate],Group II (Group II at least a ratio of >1 up to 2× that of THI0019 ran on the same plate)
0.9 fold response,O=C(CCCCN1CCN(C(=O)OCc2ccccc2)CC1)N(Cc1cccs1)Cc1cccs1 [benzyl 4-(5-(bis(thiophen-2-ylmethyl)amino)-5-oxopentyl)piperazine-1-carboxylate],Group I (Group I< or =1)
4.3 fold increased response,COc1ccc(CN(Cc2ccc(OC)cc2)C(=O)CCCCN2CCN(C(=O)OCc3ccccc3)CC2)cc1 [benzyl 4-(5-(bis(4-methoxybenzyl)amino)-5-oxopentyl)piperazine-1-carboxylate],Group II (Group II at least a ratio of >1 up to 2× that of THI0019 ran on the same plate)
3.9 fold increased response,COc1cccc(CN(Cc2cccc(OC)c2)C(=O)CCCCN2CCN(C(=O)OCc3ccccc3)CC2)c1 [benzyl 4-(5-(bis(3-methoxybenzyl)amino)-5-oxopentyl)piperazine-1-carboxylate],Group II (Group II at least a ratio of >1 up to 2× that of THI0019 ran on the same plate)
